Results: patent US6572879B1, “Formulations for transdermal delivery of pergolide” (Alza Corporation, priority 1995, dated 2003)
Structures can show the parent of a compound that is named as a salt.

How the values were obtained:
[1] = In vitro flux of pergolide through human cadaver epidermis in diffusion cells at 35° C.; format: in vitro ADME; conditions: 2% by weight in water donor, no permeation enhancer, over a period of 50 hours
Procedure: Several test samples were made to measure the flux of pergolide base and mesylate through human cadaver epidermis from donor vehicles containing the pergolide base or mesylate mixed with water alone, water and ethanol, or mineral oil alone as shown in Table 1. Transdermal fluxes were obtained using human epidermis at 35° C. in standard diffusion cells. FIGS. 5 and 6 graphically depict the results.
Circular pieces of human epidermis were placed with stratum corneum facing up. The release liner of the laminate was removed and the system was centered over the stratum corneum side of the epidermis. The edges of epidermis were then folded around the system. This assembly was then mounted on a Teflon rod. A known volume of receptor solution was then placed in a test tube and was equilibrated at 35° C. The Teflon rod with system and epidermis attached was then placed in a water bath at 35° C. Mixing was accomplished by attachment to a motor which caused constant vertical mixing.
At given time intervals, the entire receptor solution was removed from the test tubes and replaced with an equal volume of fresh receptor solutions previously equilibrated at 35° C. The receptor solutions are stored in capped vials at room temperature until assayed for pergolide content by HPLC. From the drug concentration and the volume of the receptor solutions, the area of permeation and the time interval, the flux of the drug through the epidermis was calculated as follows: (drug concentration X volume of receptor)/(area x time)=flux (μg/cm^2·hr).

[2] = Plasma terminal half-life of pergolide administered transdermally; format: in vivo; conditions: human, topical or ocular

Question: Which “average baseline skin flux” value [1] does the source give for CCCN1CC(CSC)C[C@@H]2c3cccc4[nH]cc(c34)C[C@H]21 (some centres unmarked) [pergolide base, 8-[(methylthio)methyl]-6-propylergoline] here?
Answer: Its value is “approximately 0.3 μg/cm^2·hr”.

Question: And the “average baseline skin flux” value ([1]; listed as pergolide. base)?
Answer: Its value is “about 0.3 μg/cm^2·hr”.

Question: With CCCN1C[C@H](CSC)C[C@@H]2c3cccc4[nH]cc(c34)C[C@H]21 [pergolide mesylate, 8-[(methylthiolmethyl]6-propylergoline monomethanesulfonate)] as the molecule, how does the “average baseline skin flux” value [1] read?
Answer: Its value is “approximately 1.1 μg/cm^2·hr”.

Question: And the “average baseline skin flux” value ([1]; listed as pergolide6mesylate)?
Answer: The value was “about 1.1 μg/cm^2·hr”.

Question: With CCCN1CC(CSC)C[C@@H]2c3cccc4[nH]cc(c34)C[C@H]21 (some centres unmarked) [pergolide, 8-[(methylthio)methyl]-6-propylergoline] as the molecule, how does the half-life [2] read?
Answer: Its half-life is 5 to 10 h.
